Experimental findings from ChEMBL document CHEMBL4725372, “Rational Design of Suprastat: A Novel Selective Histone Deacetylase 6 Inhibitor with the Ability to Potentiate Immunotherapy in Melanoma Models” (J Med Chem, 2020) are described below.

Series [1] relates to HEK293. As to the kind of experiment: Selectivity index, ratio of IC50 for human HDAC4 expressed in HEK293/T17 cells (unknown origin) to human HDAC6 expressed in HEK293/T17 cells. Type of series: cell-based.
In series [2] the test system is Mus musculus. Kind of series: Immunomodulatory activity in C57BL/6 mouse harboring mouse SM1 cells assessed as reduction in natural killer T cells at 25 mg/kg, ip dosed 5 days per week before by flow cytometry. Format: functional, organism-based. As to conditions: time 5.0 day/week.
For series [3], the system named is SM1. As to the kind of experiment: Antitumor activity against mouse SM1 cells transplanted in C57BL/6 mouse assessed as decrease in tumor burden at 25 mg/kg, ip dosed 5 days per week before starting 15 mg/kg, ip anti-PD1 immune checkpoint blockade therapy. Format: functional, organism-based. The note with it: time 5.0 day/week.
For series [4], the system named is HEK293. Kind of series: Selectivity index, ratio of IC50 for human HDAC7 expressed in HEK293/T17 cells (unknown origin) to human HDAC6 expressed in HEK293/T17 cells. Format: cell-based.
The subject of series [5] is Mus musculus. Kind of series: Immunomodulatory activity in C57BL/6 mouse harboring mouse SM1 cells assessed as increase in M1/M2 macrophages ratio at 25 mg/kg, ip dosed 5 days per week before starting 15 mg/kg, ip anti-PD1 immune checkpoint blockade therapy by flow cytometry. Format: functional, organism-based. The note with it: time 5.0 day/week.
The nature of series [6]: Half life in PBS by LC-MS/MS analysis. Type of series: physicochemical.
The test system of series [7] is Mus musculus. Kind of series: Immunomodulatory activity in C57BL/6 mouse harboring mouse SM1 cells assessed as increase in natural killer cells at 25 mg/kg, ip dosed 5 days per week before starting 15 mg/kg, ip anti-PD1 immune checkpoint blockade therapy by flow cytometry. Format: functional, organism-based. The note with it: time 5.0 day/week.
Series [8] has as its system HEK293. Kind of series: Selectivity index, ratio of IC50 for human HDAC1 expressed in HEK293/T17 cells (unknown origin) to human HDAC6 expressed in HEK293/T17 cells. Format: cell-based.
For series [9], the system named is HEK293. As to the kind of experiment: Selectivity index, ratio of IC50 for human HDAC5 expressed in HEK293/T17 cells (unknown origin) to human HDAC6 expressed in HEK293/T17 cells. Format: cell-based.
In series [10] the test system is HEK293. Kind of series: Selectivity index, ratio of IC50 for human HDAC8 expressed in HEK293/T17 cells (unknown origin) to human HDAC6 expressed in HEK293/T17 cells. Format: cell-based.
Series [11] relates to Mus musculus. Kind of series: Immunomodulatory activity in C57BL/6 mouse harboring mouse SM1 cells assessed as increase in CD8+ central memory cells at 25 mg/kg, ip dosed 5 days per week by flow cytometry. As to conditions: time 5.0 day/week. Format: functional, organism-based.
The test system of series [12] is Mus musculus. Kind of series: Immunomodulatory activity in C57BL/6 mouse harboring mouse SM1 cells assessed as effect on CD4+ T cells at 25 mg/kg, ip dosed 5 days per week before starting 15 mg/kg, ip anti-PD1 immune checkpoint blockade therapy by flow cytometry. As to conditions: time 5.0 day/week. Type of series: functional, organism-based.
The test system of series [13] is HEK293. Kind of series: Selectivity index, ratio of IC50 for human HDAC2 expressed in HEK293/T17 cells (unknown origin) to human HDAC6 expressed in HEK293/T17 cells. Type of series: cell-based.
The target of series [14] is T1, Protein deacetylase HDAC6 (Mus musculus) (UniProt Q9Z2V5).
T1 sequence (whole entry): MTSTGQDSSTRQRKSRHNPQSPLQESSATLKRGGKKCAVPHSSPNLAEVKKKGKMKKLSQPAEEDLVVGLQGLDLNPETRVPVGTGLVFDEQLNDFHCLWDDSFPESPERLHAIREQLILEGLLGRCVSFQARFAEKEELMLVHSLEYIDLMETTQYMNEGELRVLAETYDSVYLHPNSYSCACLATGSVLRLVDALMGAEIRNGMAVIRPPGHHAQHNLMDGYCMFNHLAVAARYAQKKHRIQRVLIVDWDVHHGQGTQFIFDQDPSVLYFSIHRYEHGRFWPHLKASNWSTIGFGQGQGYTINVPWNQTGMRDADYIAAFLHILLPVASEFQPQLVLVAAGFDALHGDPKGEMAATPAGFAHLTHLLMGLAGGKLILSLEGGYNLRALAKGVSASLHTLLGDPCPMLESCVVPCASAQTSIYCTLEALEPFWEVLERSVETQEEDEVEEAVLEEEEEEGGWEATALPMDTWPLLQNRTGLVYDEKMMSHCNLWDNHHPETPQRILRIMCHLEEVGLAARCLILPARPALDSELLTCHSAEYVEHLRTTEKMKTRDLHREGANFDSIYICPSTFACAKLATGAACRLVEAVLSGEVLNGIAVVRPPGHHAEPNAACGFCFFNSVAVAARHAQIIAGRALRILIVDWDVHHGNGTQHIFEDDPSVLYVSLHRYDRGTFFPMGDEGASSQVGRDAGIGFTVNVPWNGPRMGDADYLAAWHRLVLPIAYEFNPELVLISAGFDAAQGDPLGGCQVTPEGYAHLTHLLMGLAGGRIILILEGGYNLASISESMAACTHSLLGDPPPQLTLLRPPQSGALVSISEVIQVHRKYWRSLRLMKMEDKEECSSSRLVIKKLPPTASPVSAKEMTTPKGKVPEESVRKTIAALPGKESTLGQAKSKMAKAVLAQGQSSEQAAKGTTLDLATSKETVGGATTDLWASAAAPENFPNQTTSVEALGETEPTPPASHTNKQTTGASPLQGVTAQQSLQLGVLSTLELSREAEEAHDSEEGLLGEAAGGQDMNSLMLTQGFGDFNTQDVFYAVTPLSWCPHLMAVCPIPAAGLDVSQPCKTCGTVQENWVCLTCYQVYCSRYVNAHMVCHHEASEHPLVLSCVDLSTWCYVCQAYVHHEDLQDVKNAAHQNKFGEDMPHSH
Kind of series: Inhibition of human HDAC6 in mouse RAW264.7 cells assessed as increase in acetylated alpha-tubulin levels at 1 to 10 uM by immunoblot analysis. Type of series: cell-based. The note with it: Macrophage, dose microM 1-10.

Series [15] concerns SM1. Kind of series: Potentiation of antitumor immune response in C57BL/6 mouse harboring mouse SM1 cells assessed as decrease in tumor burden at 25 mg/kg, ip dosed 5 days per week before starting 15 mg/kg, ip anti-PD1 immune checkpoint blockade therapy measured on day 14. Type of series: functional, organism-based. The note with it: time 14.0 day.
Series [16] concerns Mus musculus. Kind of series: Immunomodulatory activity in C57BL/6 mouse harboring mouse SM1 cells assessed as effect on CD4+ T cells at 25 mg/kg, ip dosed 5 days per week by flow cytometry. Format: functional, organism-based. As to conditions: time 5.0 day/week.
Series [17] has as its system SM1. Kind of series: Cytotoxicity in mouse SM1 cells assessed as reduction in cell viability up to 25 uM. Type of series: functional, cell-based. The note with it: dose microM <=25.
The subject of series [18] is Mus musculus. As to the kind of experiment: Immunomodulatory activity in C57BL/6 mouse harboring mouse SM1 cells assessed as effect on number of F4/80+ CD80+ H2+ antitumor M1 macrophages at 25 mg/kg, ip dosed 5 days per week before starting 15 mg/kg, ip anti-PD1 immune checkpoint blockade therapy by flow cytometry. Type of series: functional, organism-based. The note with it: time 5.0 day/week.

Calls of active or inactive are those of the source. The rule behind the calls is not given here. Some results are limits rather than exact numbers.

With `NCc1ccc(NC(=O)N(CCCCO)Cc2ccc(C(=O)NO)cc2)cc1`, the Ratio IC50 came to 20600 in the series on HEK293 [1]; 3680 with HEK293 [4]; 293 in the series with HEK293 [8]; 8550 with HEK293 [9]; 1250 in the series on HEK293 [10]; 440 in the series on HEK293 [13]. Also, the result in the series on Mus musculus [2], with Mus musculus [5], with Mus musculus [7] and with Mus musculus [11] was Active. Moreover, the TGI entry with SM1 [3] and in the series on SM1 [15] was “Active” each time. In series [6], this molecule returned a half-life above 1440 min. Also, the outcome with Mus musculus [12], in the series on Mus musculus [16], in the series with SM1 [17] and in the series with Mus musculus [18] was inactive. Further, the inhibition entry in series [14] was “Dose-dependent effect”.
